# Data: patent US9918983B2, “Suicidal LSD1 inhibitors targeting SOX2-expressing cancer cells” (THE BOARD OF REGENTS OF THE NEVADA SYSTEM OF HIGHER …, priority 2013, dated 2018)
# How the values were obtained:
# [1] = system: PA-1 cells; test: Cell cycle analysis by FACS in PA-1 cells; type: cell-based, human; settings: 5 μM RA for 3 days
# Description: (§1) The fluorescence-activated cell sorting (FACS) and 3-(4,5-dimethyl-2-thiazolyl)-2,5-diphenyl-2H-tetrazolium bromide (MTT) assays were conducted as described previously (Lan, R., et al. (2012) Lab. Invest. 92, 1503-1514). To synchronize PA-1 and F9 cells at the G1/S phase transition, cells were treated with 2.5 mM thymidine for 12 h, released into fresh medium for 6 h, and blocked again with 2.5 mM thymidine for an additional 12 h. The cell cycle arrest was analyzed by FACS. For differentiation, F9 and PA-1 cells were seeded in 6-well plates at a density of 1×10^4 cells per well and supplemented with 5 μM RA for 3 days. Cells were then recultured in fresh medium without RA for another 2 days, and the cell cycle was analyzed on a BD FACSCalibur cell sorter using the CellQuest program (Becton, Dickinson, Mountain View, Calif.). The percentages of cells in G1, S, and G2/M phases were determined by the use of ModFit LT software.
# [2] = system: F9 cells; test: Cell cycle analysis by FACS in F9 cells; type: cell-based, mouse; settings: 5 μM RA for 3 days
# Description: as §1
# [3] = system: OCT4, SOX2, FOXA2, BMP2; test: Expression of pluripotency and differentiation genes in PA-1 cells; type: cell-based, human
# Description: (§8) Alternatively, total RNA was extracted with the TRIzol reagent (Invitrogen), and cDNA was generated using a cloned avian myeloblastosis virus first-strand cDNA synthesis kit (TaKaRa). The mRNA levels of the target genes were quantified by realtime PCR using SYBR green (TaKaRa) in an ABI Prism 7300 real-time PCR system (Applied Biosystems). […] To synchronize PA-1 and F9 cells at the G1/S phase transition, cells were treated with 2.5 mM thymidine for 12 h, released into fresh medium for 6 h, and blocked again with 2.5 mM thymidine for an additional 12 h. The cell cycle arrest was analyzed by FACS. For differentiation, F9 and PA-1 cells were seeded in 6-well plates at a density of 1×10^4 cells per well and supplemented with 5 μM RA for 3 days. Cells were then recultured in fresh medium without RA for another 2 days, and the cell cycle was analyzed on a BD FACSCalibur cell sorter using the CellQuest program (Becton, Dickinson, Mountain View, Calif.). The percentages of cells in G1, S, and G2/M phases were determined by the use of ModFit LT software.
# [4] = system: OCT4, SOX2, FOXA2, BMP2; test: Expression of pluripotency and differentiation genes in F9 cells; type: cell-based, mouse
# Description: as §8
# [5] = system: G401 cells; test: Cell growth/viability (MTT, microscopy); type: cell-based, human; settings: 50 μM, 30 hours
# Description: (§2) Lung, breast, ovarian, and other carcinoma cells were either obtained from American Type Culture Collection (ATCC) or from the DTP and DCTD Tumor Repository of National Cancer Institute (the NCI-60 cancer cell line panel), operated by Charles River Laboratory, Inc., as listed in Table 1. They were cultured according to instructions and treated with various concentrations of LSD1 inhibitors for 30-36 hours for mRNA analysis by quantitative real time RT-PCR or for 30-48 hours for protein analysis and the cell viability assays using Western blotting or microscopy and MTT assays as described previously (Wang, J., et al. (2011) Cancer Research 71, 7238-7249).
# (§3) Alternatively, cell viability assays were conducted as previously described (Wang, J., et al. (2011) Cancer Research 71, 7238-7249). […] After removing the medium, 200 μL DMSO was added to dissolve formazan, followed by incubation for 10 minutes, and absorbance was measured at 490 nm by a Bio Red microplate reader. […] The cell viability rate was calculated as the relative percentage of MTT absorption as follows: % cell viability=(mean experimental absorbance/mean control absorbance)×100.
# Referring to FIG. 10B, Sox2-expressing myelogenous leukemia and rhabdoid tumor cells were also sensitive to LSD1 inhibitors. […] The statistical differences between compound treated and control groups were analyzed by One-way ANOVA. *: p<0.05 and **: p<0.01.
# [6] = system: BT-549 cells; test: Cell growth/viability (MTT, microscopy); type: cell-based, human; settings: BT549 cells, 50 μM, 30 hours
# Description: as §2
# (§4) Alternatively, cell viability assays were conducted as previously described (Wang, J., et al. (2011) Cancer Research 71, 7238-7249). For the MTT assay, cells were seeded onto 96-well culture plates with a density of 2000-5000 cells/well, and incubated with CBB1003 or CBB1007 at various concentrations from 1 to 100 μM for 30-48 hours, depending cell growth rate. Dimethylsulfoxide (DMSO) was used as a solvent control. MTT was added to a final concentration of 0.5 mg/mL and cells were re-incubated for 4 hours. After removing the medium, 200 μL DMSO was added to dissolve formazan, followed by incubation for 10 minutes, and absorbance was measured at 490 nm by a Bio Red microplate reader. All assays were performed in triplicates for each concentration. The cell viability rate was calculated as the relative percentage of MTT absorption as follows: % cell viability=(mean experimental absorbance/mean control absorbance)×100.
# [7] = system: SKOV-3 cells; test: Cell growth/viability (MTT, microscopy); type: cell-based, human; settings: 50 μM, 30 hours
# Description: as §2, §4
# [8] = system: HS38.T cells; test: Cell growth/viability (MTT, microscopy); type: cell-based, human; settings: 50 μM, 30 hours
# Description: as §2, §4
# [9] = system: IGROV-1 cells; test: Cell growth/viability (MTT, microscopy); type: cell-based, human; settings: 50 μM, 30 hours
# Description: as §2, §4
# [10] = system: MCF7 cells; test: Cell growth/viability (MTT, microscopy); type: cell-based, human; settings: 50 μM, 30 hours
# Description: as §2, §4
# [11] = system: SK-BR-3 cells; test: Cell growth/viability (MTT, microscopy); type: cell-based, human; settings: 50 μM, 30 hours
# Description: as §2, §4
# [12] = system: TP63 and KRT6A; test: TP63 and KRT6A mRNA by real-time RT-PCR in NCI-H520 cells; type: cell-based, human; settings: 50 μM, 30 hours
# Description: (§5) Total RNA was extracted using TRIZOL reagent (TaKaRa) and complementary DNA was generated according to instructions in the PrimeScript 1st strand cDNA Synthesis Kit (TaKaRa) as described previously (Wang, J., et al. (2011) Cancer Research 71, 7238-7249). The cDNAs were diluted to 1/20 and 1 μL of each diluted sample was used as template for each sample. Real-time quantitative PCR was performed on an ABI Prism 7300 sequence detection system (Applied Biosystems) using SYBR Green (TaKaRa) according to the manufacturer's instructions. PCR amplification of the housekeeping gene β-Actin was performed as a control. Experiments for specific silencing or induction of gene expression were repeated at least three times. The real-time PCR primers of human genes are described in Table 3 above.
# (§6) Left panels: lung carcinoma NCI-H520, A549, and H1299 cells were either treated with 50 μM CBB1003 for 30 hours or were transfected with Luc, LSD1, or Sox2 specific siRNAs for 48 hours as indicated. […] The statistical differences between experimental and control groups were analyzed by one-way ANOVA (*: p<0.05 and **: p<0.01). Right panels: the ablation efficiency of LSD1 and Sox2 siRNAs was examined.
# [13] = system: ES-2 cells; test: Cell growth/viability (MTT, microscopy); type: cell-based, human
# Description: as §2
# Alternatively, cell viability assays were conducted as previously described (Wang, J., et al. (2011) Cancer Research 71, 7238-7249). […] Dimethylsulfoxide (DMSO) was used as a solvent control. MTT was added to a final concentration of 0.5 mg/mL and cells were re-incubated for 4 hours. After removing the medium, 200 μL DMSO was added to dissolve formazan, followed by incubation for 10 minutes, and absorbance was measured at 490 nm by a Bio Red microplate reader. All assays were performed in triplicates for each concentration. The cell viability rate was calculated as the relative percentage of MTT absorption as follows: % cell viability=(mean experimental absorbance/mean control absorbance)×100.
# (§7) Table 8 below lists activity of CBB3001 (compound 10) in Sox2-negative (ES-2) and Sox2-expressing (PA-1 and T47D) cancer cells determined in a cell-based assay as described herein (see also FIG. 3A-C).
# [14] = system: Sox2; test: Sox2 protein level by western blotting in carcinoma cells; type: cell-based, human; parameters: dose or concentration left out as unconfirmed; settings: indicated carcinoma cells, 30 hr
# Excerpt: Log-phase growing cancer cells were directly lysed in a buffer containing 0.5% SDS. Proteins in the lysates were equalized and analyzed by Western blotting using antibodies against Sox2, LSD1, H3K4Me1, H3K4Me2, Oct4, and other proteins as described previously or in the figure descriptions (Wang, J., et al. (2011) Cancer Research 71, 7238-7249). For immunohistochemical staining, rabbit monoclonal anti-LSD1 (clone C69G12, cat. #2184) and anti-Sox2 (clone D6D9, cat. #3579) antibodies were obtained from Cell Signaling. Rabbit anti-Sox2 polyclonal antibodies were raised using the purified GST-Sox2 fusion protein as the antigen.
# Referring to FIG. 11A, inactivation of LSD1 by LSD1 inhibitors or siRNAs caused the downregulation of Sox2. The indicated carcinoma cells were treated with […] of the LSD1 inhibitors CBB1007 and CBB1003 for 30 hr or with 50 nM of Luc or LSD1 siRNAs for 60 hr. The protein levels of LSD1, Sox2, Lin28, CUL1, and histone H3 were analyzed by western blotting.
# [15] = system: TP63 and KRT6A; test: TP63 and KRT6A mRNA by real-time RT-PCR in A549 cells; type: cell-based, human; settings: 50 μM, 30 hours
# Description: as §5, §6
# [16] = system: PA-1 cells; test: Cell growth/viability (MTT, microscopy); type: cell-based, human
# Description: as §2, §4, §7
# [17] = system: T47D cells; test: Cell growth/viability (MTT, microscopy); type: cell-based; settings: Homo sapiens; Sox2-expressing T47D cancer cells
# Description: as §2, §3, §7
# [18] = target: T1, LSD1 (Homo sapiens, UniProt O60341); test: LSD1 activity (LSD1 IC50, Table 7, FIG. 2); type: cell-based
# T1 construct: LSD1 activity determined in a cell-based assay as described herein; endogenous in cells
# Description: For a typical deacetylation assay, 1 μg rHDAC1 or 1 μg immunoprecipitated endogenous HDAC1-protein A complexes (from two 10-cm dishes) was incubated with 0.4 μg H4K16ac peptide in the presence or absence of 50 μM CBB1007 or 2 μM MS-275 at 30° C. for 1 h. The percentages of deacetylated products were analyzed by mass spectrometry, and the data were analyzed by GraphPad Prism (version 5) software. The reaction products were analyzed by mass spectrometry to separate the peptide substrate (H4K16ac) and the product (H4K16), as previously described (Wang, J., et al. (2011) Cancer Research 71, 7238-7249). For a typical demethylation assay, 0.4 μg H3K4me2 substrate peptide was incubated individually with 1 μg recombinant LSD1 (rLSD1) or 1 μg immunoprecipitated LSD1-protein A complex in the presence or absence of 50 μM CBB1007 or 2 μM MS-275 at 30° C. for 1 h. The reaction products were analyzed by mass spectrometry to separate the products (H3K4me1 and H3K4) from the substrate (H3K4me2), as previously described (Wang, J., et al. (2011) Cancer Research 71, 7238-7249).
# Table 7 below lists specific compounds and LSD1 activity determined in a cell-based assay as described herein (see also FIGS. 2A and 2B).
smiles,measurement,setting,value
"CC1=C(/C=C/C(C)=C/C=C/C(C)=C/C(=O)O)C(C)(C)CCC1 [RA, all-trans-retinoic acid]",cell cycle effect,[1],G1 cell cycle arrest
same,cell cycle effect,[2],G1 cell cycle arrest
same,OCT4 and SOX2 levels,[3],reduction
same,"genes for differentiation, such as FOXA2 and BMP2",[3],induction
same,OCT4 and SOX2 levels,[4],reduction
same,"genes for differentiation, such as FOXA2 and BMP2",[4],induction
N=C(N)c1ccc(C(=O)N2CCN(C(=O)c3cc(CN4CCN(C(=N)N)CC4)cc([N+](=O)[O-])c3)CC2)cc1 [CBB1003],cell growth,[5],inhibited
same,cell growth,[6],not sensitive
same,cell growth,[7],sensitive
same,cell growth,[8],not sensitive
same,cell growth,[9],sensitive
same,cell growth,[10],sensitive
same,cell growth,[11],not sensitive
same,mRNA levels of TP63 and KRT6A,[12],down-regulated
same,cell growth,"[13]; ES-2 cells, 50 μM, 30 hours",not sensitive
same,Sox2 protein level,[14],downregulation
same,mRNA levels of TP63 and KRT6A,[15],down-regulated
same,cell growth,"[16]; PA-1 cells, 50 μM, 30 hours",sensitive
"CC(C)(C)OC(=O)N[C@@H]1C[C@H]1c1ccc(OC(=O)OC(C)(C)C)cc1 [Compound 10, Tert-Butyl ((1R,2S)-2-(4-((Tert-Butoxycarbonyl)Oxy)Phenyl)Cyclopropyl)Carbamate]",IC50,"[13]; Homo sapiens, Sox2-negative ES-2 cancer cells",310 µM
same,IC50,"[16]; Homo sapiens, Sox2-expressing PA-1 cancer cells",15.2 µM
same,IC50,[17],22.1 µM
same,IC50,[18],21.2 µM
